Read-outs that look alike come from different tables or passages of the source.

This assay concerns A549 cells. Kind of assay: Cell proliferation assay (CellTiter-Glo), cells with K-Ras G12S mutation. The assay is classed as cell-based. The following applies: Homo sapiens, read-out: Inhibition of A549 Cells (IC50). Here is the method:
A549 (ATCC CRL-185) and LS123 (ATCC CRL-255) cell lines comprise a G12S mutation and can be used to assess Ras cellular signaling in vitro, e.g., in response to treatment with a compound described herein. A549 culture medium is prepared with RPMI-1640 and 10% heat-inactivated FBS. LS123 culture medium is prepared with RPMI-1640 and 10% heat-inactivated FBS. A CellTiter-Glo (CTG) luminescent based assay (Promega) is used to assess growth of the cells, as a measurement of the ability of the compounds herein to inhibit Ras signaling in the cells. The cells (e.g., 800 per well) are seeded in their respective culture medium in standard tissue culture-treated 384-well format plates (Falcon #08-772-116) or ultra-low attachment surface 384-well format plates (S-Bio #MS-9384WZ). The day after plating, cells are treated with a dilution series (e.g., a 10 point 3-fold dilution series) of the compounds herein (e.g., approximately 40 μl final volume per well). Cell viability can be monitored (e.g., approximately 6 days later) according to the manufacturer's recommended instructions, where CellTiter-Glo reagent is added (e.g., approximately 10 μl), vigorously mixed, covered, and placed on a plate shaker (e.g., approximately for 20 min) to ensure sufficient cell lysis prior to assessment of luminescent signal. The IC50 values are determined using the four parameter fit. The resulting IC50 value is a measurement of the ability of the test compound to reduce cell growth of Ras-driven cells (e.g., tumor cell lines) in vitro and/or in vivo.

As for `CCC1N(C(=O)n2cncn2)CC12CN(c1nc(OC[C@@]34CCCN3C[C@H](F)C4)nc3c(F)c(-c4ccc(F)c5sc(N)c(C#N)c45)c(Cl)cc13)CCO2` (stereo partly drawn) [Compound 112, 2-amino-4-(6-chloro-4-(1-ethyl-2-(1H-1,2,4-triazole-1-carbonyl)-5-oxa-2,8-diazaspiro[3.5]nonan-8-yl)-8-fluoro-2-(((2R,7aS)-2-fluorotetrahydro-1H-pyrrolizin-7a(5H)-yl)methoxy)quinazolin-7-yl)-7-fluorobenzo[b]thiophene-3-carbonitrile], the IC50 (in general, the point on the concentration scale where inhibition reaches its midpoint) (≤500 nM) was no more than 500 nM.
For the compound `CC1CC2C(CCCN2c2nc(OC[C@@]34CCCN3C[C@H](F)C4)nc3c(F)c(-c4ccc(F)c5sc(N)c(C#N)c45)c(Cl)cc23)N1C(=O)n1cncn1` (stereo partly drawn) [Compound 113, 2-amino-4-(6-chloro-8-fluoro-2-(((2R,7aS)-2-fluorotetrahydro-1H-pyrrolizin-7a(5H)-yl)methoxy)-4-(2-methyl-1-(1H-1,2,4-triazole-1-carbonyl)octahydro-4H-pyrrolo[3,2-b]pyridin-4-yl)quinazolin-7-yl)-7-fluorobenzo[b]thiophene-3-carbonitrile], for the setting “500 nM to 5 μM (mixed units)”, the IC50 lay within 500 to 5000 nM.
Turning to `CCN(C(=O)n1cnc(F)n1)[C@@H]1CCN(c2nc(OC[C@@]34CCCN3C[C@H](F)C4)nc3c(F)c(-c4ccc(F)c5sc(N)c(C#N)c45)c(Cl)cc23)[C@@H]1C` [Compound 115, N-((2R,3R)-1-(7-(2-amino-3-cyano-7-fluorobenzo[b]thiophen-4-yl)-6-chloro-8-fluoro-2-(((2R,7aS)-2-fluorotetrahydro-1H-pyrrolizin-7a(5H)-yl)methoxy)quinazolin-4-yl)-2-methylpyrrolidin-3-yl)-N-ethyl-3-fluoro-1H-1,2,4-triazole-1-carboxamide], the IC50 (≤500 nM) is no more than 500 nM.
Same read-out and setting: for `CC(C)C1N(C(=O)n2cncn2)CC12CCCN(c1nc(OC[C@@]34CCCN3C[C@H](F)C4)nc3c(F)c(-c4ccc(F)c5sc(N)c(C#N)c45)c(Cl)cc13)C2` (stereo partly drawn) [Compound 116, 2-amino-4-(6-chloro-8-fluoro-2-(((2R,7aS)-2-fluorotetrahydro-1H-pyrrolizin-7a(5H)-yl)methoxy)-4-(1-isopropyl-2-(1H-1,2,4-triazole-1-carbonyl)-2,6-diazaspiro[3.5]nonan-6-yl)quinazolin-7-yl)-7-fluorobenzo[b]thiophene-3-carbonitrile] the value was no more than 500 nM.
The same measure, in the same setting: for `CC(C)[C@H]1N(C(=O)n2cncn2)C[C@]12CCCN(c1nc(OC[C@@]34CCCN3C[C@H](F)C4)nc3c(F)c(-c4ccc(F)c5sc(N)c(C#N)c45)c(Cl)cc13)C2` [Compound 118, 2-amino-4-(6-chloro-8-fluoro-2-(((2R,7aS)-2-fluorotetrahydro-1H-pyrrolizin-7a(5H)-yl)methoxy)-4-((1R,4R)-1-isopropyl-2-(1H-1,2,4-triazole-1-carbonyl)-2,6-diazaspiro[3.5]nonan-6-yl)quinazolin-7-yl)-7-fluorobenzo[b]thiophene-3-carbonitrile] the value was no more than 500 nM; for `CN(C(=O)n1cncn1)C1CCCN(c2nc(OC[C@@]34CCCN3C[C@H](F)C4)nc3c(F)c(-c4ccc(F)c5sc(N)c(C#N)c45)c(Cl)cc23)C1` (stereo partly drawn) [Compound 119, N-(1-(7-(2-amino-3-cyano-7-fluorobenzo[b]thiophen-4-yl)-6-chloro-8-fluoro-2-(((2R,7aS)-2-fluorotetrahydro-1H-pyrrolizin-7a(5H)-yl)methoxy)quinazolin-4-yl)piperidin-3-yl)-N-methyl-1H-1,2,4-triazole-1-carboxamide], no more than 500 nM.
Take `COCC1([C@@H]2[C@H](CN(C)c3nc(OC[C@@]45CCCN4C[C@H](F)C5)nc4c(F)c(-c5ccc(F)c6sc(N)c(C#N)c56)c(Cl)cc34)CN2C(=O)n2cnc(F)n2)CC1` [Compound 120, 2-amino-4-(6-chloro-8-fluoro-4-((((2S,3R)-1-(3-fluoro-1H-1,2,4-triazole-1-carbonyl)-2-(1-(methoxymethyl)cyclopropyl)azetidin-3-yl)methyl)(methyl)amino)-2-(((2R,7aS)-2-fluorotetrahydro-1H-pyrrolizin-7a(5H)-yl)methoxy)quinazolin-7-yl)-7-fluorobenzo[b]thiophene-3-carbonitrile]: for the setting “≤500 nM”, the IC50 was no more than 500 nM.
Consider `CCC1N(C(=O)n2cncn2)CC12CCN(c1nc(OC[C@@]34CCCN3C[C@H](F)C4)nc3c(F)c(-c4ccc(F)c5sc(N)c(C#N)c45)c(Cl)cc13)C2` (stereo partly drawn) [Compound 123, (4R)-2-amino-4-(6-chloro-4-(1-ethyl-2-(1H-1,2,4-triazole-1-carbonyl)-2,6-diazaspiro[3.4]octan-6-yl)-8-fluoro-2-(((2R,7aS)-2-fluorotetrahydro-1H-pyrrolizin-7a(5H)-yl)methoxy)quinazolin-7-yl)-7-fluorobenzo[b]thiophene-3-carbonitrile], for which the IC50 (≤500 nM) was no more than 500 nM.
On the same count and under the same terms, for `CN(C(=O)n1cncn1)C1CCN(c2nc(OC[C@@]34CCCN3C[C@H](F)C4)nc3c(F)c(-c4ccc(F)c5sc(N)c(C#N)c45)c(Cl)cc23)C1` (stereo partly drawn) [Compound 124, N-(1-(7-(2-amino-3-cyano-7-fluorobenzo[b]thiophen-4-yl)-6-chloro-8-fluoro-2-(((2R,7aS)-2-fluorotetrahydro-1H-pyrrolizin-7a(5H)-yl)methoxy)quinazolin-4-yl)pyrrolidin-3-yl)-N-methyl-1H-1,2,4-triazole-1-carboxamide] the value was no more than 500 nM.
On the same count and under the same terms, for `CC1C(N(C)C(=O)n2cncn2)CCN1c1nc(OC[C@@]23CCCN2C[C@H](F)C3)nc2c(F)c(-c3ccc(F)c4sc(N)c(C#N)c34)c(Cl)cc12` (stereo partly drawn) [Compound 125, N-(1-(7-(2-amino-3-cyano-7-fluorobenzo[b]thiophen-4-yl)-6-chloro-8-fluoro-2-(((2R,7aS)-2-fluorotetrahydro-1H-pyrrolizin-7a(5H)-yl)methoxy)quinazolin-4-yl)-2-methylpyrrolidin-3-yl)-N-methyl-1H-1,2,4-triazole-1-carboxamide] the value was no more than 500 nM; for `N#Cc1c(N)sc2c(F)ccc(-c3c(Cl)cc4c(N5CCCC6(C5)CN(C(=O)n5cncn5)C6C5CC5)nc(OC[C@@]56CCCN5C[C@H](F)C6)nc4c3F)c12` (stereo partly drawn) [Compound 127, 2-amino-4-(6-chloro-4-(1-cyclopropyl-2-(1H-1,2,4-triazole-1-carbonyl)-2,6-diazaspiro[3.5]nonan-6-yl)-8-fluoro-2-(((2R,7aS)-2-fluorotetrahydro-1H-pyrrolizin-7a(5H)-yl)methoxy)quinazolin-7-yl)-7-fluorobenzo[b]thiophene-3-carbonitrile], no more than 500 nM.
As to `COCC1([C@H]2N(C(=O)n3cnc(F)n3)C[C@]23CC[C@H](C)N(c2nc(OC[C@@]45CCCN4C[C@H](F)C5)nc4c(F)c(-c5ccc(F)c6sc(N)c(C#N)c56)c(Cl)cc24)C3)CC1` [Compound 129, 2-amino-4-(6-chloro-8-fluoro-4-((1S,4R,7S)-2-(3-fluoro-1H-1,2,4-triazole-1-carbonyl)-1-(1-(methoxymethyl)cyclopropyl)-7-methyl-2,6-diazaspiro[3.5]nonan-6-yl)-2-(((2R,7aS)-2-fluorotetrahydro-1H-pyrrolizin-7a(5H)-yl)methoxy)quinazolin-7-yl)-7-fluorobenzo[b]thiophene-3-carbonitrile], for the setting “≤500 nM”, the IC50 is no more than 500 nM.
